According to article PMC11017246, “Discovery of GLPG2737, a Potent Type 2 Corrector of CFTR for the Treatment of Cystic Fibrosis in Combination with a Potentiator and a Type 1 Co-corrector” (Journal of Medicinal Chemistry, 2024):

Columns and labels:
[1] = Liver microsomal stability, rat; format: in vitro ADME; details: rat; matrix not given; read-out: Clintr,unbound rat (converted)
Experimental: (§1) The microsomal stability assay was performed by incubation of test compound at 1 μM, 0.2% DMSO in phosphate buffer with microsomes (0.5 mg/mL) from mouse, rat, dog, or human (Xeno-Tech, Kansas City, KS, USA), and cofactors with final concentrations of 0.6 U/mL glucose-6- phosphate dehydrogenase, 3.3 mM MgCl2, 3.3 mM glucose-6-phosphate, and 1.3 mM nicotinamide adenine dinucleotide phosphate (NADP)+. Before addition of the microsomes (time zero) and after 30 min of incubation at 37 °C with shaking, the reaction was stopped, and proteins were precipitated with an excess of acetonitrile containing an internal standard. The samples were mixed, centrifuged, and filtered, and the supernatant was analyzed by liquid chromatography–mass spectrometry/mass spectrometry (LC–MS/MS). The instrument responses (peak areas/IS peak areas) were referenced to the zero-time point samples (considered as 100%) to determine the percentage of compound remaining. In vitro unbound intrinsic clearance (CLint,u) was calculated from the half-life using the following equations: [drawing 1] [drawing 2] To take into account nonspecific binding, scaled CLint values were corrected with the fraction unbound in microsomes (fu, mic). [drawing 3]
(§2) Equilibrium dialysis is a technique used to measure microsomal binding. Briefly, the assay was performed in a 96-well Teflon dialysis unit (Dialysis Device), where each well consists of two chambers separated by a dialysis membrane (membrane strips, MW cutoff 12–14 kDa, HTDialysis). Inactivated liver microsomes (pooled human liver microsomes, Xenotech, protein concentration of 0.5 mg/mL) spiked with a compound (1 μM final concentration, 0.5% DMSO) were added to one chamber and buffer solution (50 mM PBS Buffer) was added to the other side of the well. Each compound was analyzed in duplicate for 4 h at 37 °C. At the end of incubation, both chambers were sampled and analyzed by LC-MS/MS. The unbound microsomal fraction (fu, mic) was calculated as the concentration in buffer divided by the total concentration in the microsomal side. Positive controls included in this assay are terfenadine and verapamil.

[2] = Liver microsomal stability, human; format: in vitro ADME; details: human; matrix not given; read-out: Clintr,unbound human (converted)
Experimental: as §1, §2

PK mouse = format: in vivo
CYP1A2 = target: T1, CYP1A2 (Homo sapiens, UniProt P05177); assay: CYP reversible inhibition in HLM, CYP1A2; format: in vitro ADME; details: probe phenacetin
T1 construct: tissue BD Gentest; host or cells: human liver microsomes
T1 sequence (P05177 1-516): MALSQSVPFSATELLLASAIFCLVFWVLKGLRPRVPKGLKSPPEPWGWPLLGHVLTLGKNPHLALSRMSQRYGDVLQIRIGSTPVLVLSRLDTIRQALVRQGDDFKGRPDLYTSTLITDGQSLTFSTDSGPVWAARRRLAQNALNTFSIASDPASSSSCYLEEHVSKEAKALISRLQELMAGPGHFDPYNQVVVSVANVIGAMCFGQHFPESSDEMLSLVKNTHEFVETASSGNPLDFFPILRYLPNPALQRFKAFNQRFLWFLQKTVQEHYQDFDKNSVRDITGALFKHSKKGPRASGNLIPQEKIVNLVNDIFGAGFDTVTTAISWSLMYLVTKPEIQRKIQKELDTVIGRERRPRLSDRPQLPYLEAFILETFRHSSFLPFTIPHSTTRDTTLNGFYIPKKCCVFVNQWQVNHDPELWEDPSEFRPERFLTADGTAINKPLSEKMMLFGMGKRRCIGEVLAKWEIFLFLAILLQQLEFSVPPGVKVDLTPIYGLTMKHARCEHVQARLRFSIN
Experimental: Test compounds were diluted in methanol and then added to mixture containing 50 mM potassium phosphate buffer, pH 7.4, human liver microsomes (BD Gentest) and probe substrate. After prewarming for 5 min at 37 °C, the reaction was started by adding cofactor mix (7.65 mg/mL glucose-6-phosphate, 1.7 mg/mL NADP, 6 U/mL of glucose-6-phosphate dehydrogenase), resulting in seven final concentrations of test compounds in the range 0.14–100 μM (2% methanol). Isoform specific conditions regarding probe substrate and microsomal protein concentrations are available in Table 2. Final concentrations of cofactor mix components were as follows: 1.56 mg/mL glucose-6-phosphate, 0.34 mg/mL NADP, and 1.2 U/mL glucose-6-phosphate dehydrogenase. After incubation at 37 °C, the reaction was terminated with acetonitrile:methanol (2:1) solution with internal standard. Samples were centrifuged, and the supernatant fractions were analyzed by LC-MS/MS. The instrument responses (test compounds and internal standard peak areas) were referenced to those for solvent controls (assumed as 100%) in order to determine the percentage reduction in probe metabolism. Percent of control activity vs concentration plots were generated and fitted using GraphPad Prism software to generate IC50.

CLint scaled at 1 μM [1]: 82.3 mL/min/kg
CLint scaled at 1 μM [2]: 66.7 mL/min/kg
F (%) mouse (PK mouse; 5 mg/kg po): 71.3%
Vd (PK mouse; plasma, 1 mg/kg iv, read-out: Vss mouse): 1.27 L/kg
half-life (PK mouse; plasma, 1 mg/kg iv, read-out: t1/2 iv mouse (converted)): 3.22 h
clearance (PK mouse; plasma, iv, 1 mg/kg, 1 mg/kg iv, read-out: Clp mouse (converted)): 4.67 mL/min/kg
Unbound clearance (PK mouse; plasma, iv, 1 mg/kg, 1 mg/kg iv, unbound clearance, read-out: Cl.u mouse (converted)): 1110 mL/min/kg
IC50 (CYP1A2): > 100 µM
Compound: COC1CCN(C2CCN(c3cc(C(=O)NS(=O)(=O)N(C)C)nc4c3c(C3CCC3)nn4-c3ccc(F)cc3)CC2)CC1 [Compound 52, 3-Cyclobutyl-N-(N,N-dimethylsulfamoyl)-1-(4-fluorophenyl)-4-(4-methoxy-[1,4′-bipiperidin]-1′-yl)-1H-pyrazolo[3,4-b]pyridine-6-carboxamide]
mutagenicity (Ames II test): not mutagenic
